In PubChem BioAssay AID1195 (EPA DSSTox, 2008):

Test system: human maximum recommended daily dose, FDA database
Assay: DSSTox (FDAMDD) FDA Maximum (Recommended) Daily Dose Database
Settings: hits give low values
How it was run: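 MRDD values come from clinical trials with daily oral dosing, usually for 3–12 months, for the average adult, in mg/day converted to mg/kg-bw/day assuming 60 kg. Antineoplastic mg/m2 doses are divided by 37. Activity score maps log10(1/MRDD mmol) onto 1–100.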

[1] = TherapeuticCategory: glucocorticoid
[2] = TherapeuticCategory: antineoplastic
[3] = TherapeuticCategory: antidiabetic
[4] = TherapeuticCategory: antibacterial
[5] = TherapeuticCategory: vasodilator
[6] = TherapeuticCategory: skeletal muscle relaxant, neuromuscular blocker
[7] = TherapeuticCategory: anticholinergic
[8] = TherapeuticCategory: antihypertensive, antianginal
[9] = TherapeuticCategory: anthelmintic
[10] = TherapeuticCategory: diagnostic aid
[11] = TherapeuticCategory: antidepressant
[12] = TherapeuticCategory: antipsychotic

CCCCC(=O)O[C@]1(C(=O)COC(C)=O)CC[C@H]2[C@@H]3CCC4=CC(=O)C=C[C@]4(C)[C@H]3[C@@H](O)C[C@@]21C
maximum recommended daily dose (mmol/kg-bw/day) [1]: 0.00684

N[C@@H](Cc1ccc(N(CCCl)CCCl)cc1)C(=O)O
maximum recommended daily dose (mmol/kg-bw/day) [2]: 0.000328

CC(C)NCC(O)COc1ccc(CCOCC2CC2)cc1 (configuration not stated)
maximum recommended daily dose (mmol/kg-bw/day) (TherapeuticCategory: antihypertensive, antiglaucomic): 0.00217

O=C1NC(=O)C(c2ccccc2)(c2ccccc2)N1
maximum recommended daily dose (mmol/kg-bw/day) (TherapeuticCategory: anticonvulsant, antiepileptic): 0.0198

C[C@H]1O[C@@H](O[C@H]2[C@@H](O)C[C@H](O[C@H]3[C@@H](O)C[C@H](O[C@H]4CC[C@@]5(C)[C@H](CC[C@@H]6[C@@H]5C[C@@H](O)[C@]5(C)[C@@H](C7=CC(=O)OC7)CC[C@]65O)C4)O[C@@H]3C)O[C@@H]2C)C[C@H](O)[C@@H]1O
maximum recommended daily dose (mmol/kg-bw/day) (TherapeuticCategory: cardiotonic): 1.28e-08

COCc1c(C(C)C)nc(C(C)C)c(/C=C/[C@@H](O)C[C@@H](O)CC(=O)O)c1-c1ccc(F)cc1
maximum recommended daily dose (mmol/kg-bw/day) (TherapeuticCategory: antihyperlipoproteinemic): 1.09e-05

C[C@@H]1C[C@@]2(C)[C@@H](CC[C@@H]3[C@@H]2CC[C@]2(C)[C@@H](O)CC[C@@H]32)CC1=O
maximum recommended daily dose (mmol/kg-bw/day) [2]: 0.00549

CCOc1cc(CC(=O)N[C@@H](CC(C)C)c2ccccc2N2CCCCC2)ccc1C(=O)O
maximum recommended daily dose (mmol/kg-bw/day) [3]: 0.00059

OC[C@H]1O[C@@H](O[C@H]2[C@H](O)[C@@H](O)[C@H](O)O[C@@H]2CO)[C@H](O)[C@@H](O)[C@H]1O
maximum recommended daily dose (mmol/kg-bw/day) (TherapeuticCategory: none): 0.292

NC(=O)NC(=O)Cc1ccccc1
maximum recommended daily dose (mmol/kg-bw/day) (TherapeuticCategory: anticonvulsant): 0.281

Cc1ccc(/C(=C/CN2CCCC2)c2ccccn2)cc1
maximum recommended daily dose (mmol/kg-bw/day) (TherapeuticCategory: antihistaminic): 0.0006

CC(=O)[C@H]1CC[C@H]2[C@@H]3CC[C@H]4C[C@H](O)CC[C@]4(C)[C@H]3C(=O)C[C@]12C
maximum recommended daily dose (mmol/kg-bw/day) (TherapeuticCategory: anesthetic): 0.00203

COc1cccc([C@@]2(O)CCCC[C@@H]2CN(C)C)c1
maximum recommended daily dose (mmol/kg-bw/day) (TherapeuticCategory: analgesic): 0.0253

CC(=O)O[C@H]1C[C@@]2(C)[C@@H](C[C@@H](O)[C@H]3[C@@]4(C)CC[C@@H](O)[C@@H](C)[C@@H]4CC[C@@]32C)/C1=C(\CCC=C(C)C)C(=O)O
maximum recommended daily dose (mmol/kg-bw/day) [4]: 0.0484

CC(CCc1ccccc1)NC(C)C(O)c1ccc(O)cc1 (configuration not stated)
maximum recommended daily dose (mmol/kg-bw/day) [5]: 0.00267

COc1cc2c(cc1OC)C(Cc1cc(OC)c(OC)c(OC)c1)[N+](C)(CCCOC(=O)CC/C=C/CCC(=O)OCCC[N+]1(C)CCc3cc(OC)c(OC)cc3C1Cc1cc(OC)c(OC)c(OC)c1)CC2 (configuration not stated)
maximum recommended daily dose (mmol/kg-bw/day) [6]: 0.000227

NC(=O)NNc1ccccc1
maximum recommended daily dose (mmol/kg-bw/day) (TherapeuticCategory: antipyretic): 0.165

CCCCNC(=O)NS(=O)(=O)c1ccc(C)cc1
maximum recommended daily dose (mmol/kg-bw/day) (TherapeuticCategory: hypoglycemic agent): 0.123

O=C(O)C(O)c1ccccc1 (configuration not stated)
maximum recommended daily dose (mmol/kg-bw/day) (TherapeuticCategory: urinary antiseptic): 0.438

COc1cc(C[C@@H]2c3c(cc(OC)c(OC)c3OC)CC[N@@+]2(C)CCCOC(=O)CCC(=O)OCCC[N@@+]2(C)CCc3cc(OC)c(OC)c(OC)c3[C@@H]2Cc2cc(OC)c(OC)c(OC)c2)cc(OC)c1OC
maximum recommended daily dose (mmol/kg-bw/day) [6]: 4.52e-05

CCCCCCC(=O)OCCN1CCN(CCCN2c3ccccc3Sc3ccc(C(F)(F)F)cc32)CC1
maximum recommended daily dose (mmol/kg-bw/day) (TherapeuticCategory: antispsychotic): 0.000606

C=C1/C(=C/C=C2/CCC[C@]3(C)[C@@H]([C@H](C)CCCC(C)C)CC[C@@H]23)C[C@@H](O)C[C@@H]1O
maximum recommended daily dose (mmol/kg-bw/day) (TherapeuticCategory: vitamin D source): 7.49e-06

C[C@]12CC[C@H]3[C@@H](CCC4=CC(=O)CC[C@@H]43)[C@@H]1CC[C@@H]2O
maximum recommended daily dose (mmol/kg-bw/day) (TherapeuticCategory: anabolic): 0.0121

Cc1cc(C)nc(NS(=O)(=O)c2ccc(N)cc2)n1
maximum recommended daily dose (mmol/kg-bw/day) [4]: 0.18

Nc1nc(F)nc2c1ncn2[C@@H]1O[C@H](COP(=O)(O)O)[C@@H](O)[C@@H]1O
maximum recommended daily dose (mmol/kg-bw/day) [2]: 0.00185

Cc1onc(-c2c(F)cccc2Cl)c1C(=O)N[C@@H]1C(=O)N2[C@@H]1SC(C)(C)[C@@H]2C(=O)O
maximum recommended daily dose (mmol/kg-bw/day) [4]: 0.147

CN1CCCN=C1COC(=O)C(O)(c1ccccc1)C1CCCCC1 (configuration not stated)
maximum recommended daily dose (mmol/kg-bw/day) [7]: 0.00145

Cc1c(C(=O)O)c(O)cc2c1C(=O)c1c(O)c([C@@H]3O[C@H](CO)[C@@H](O)[C@H](O)[C@H]3O)c(O)c(O)c1C2=O
maximum recommended daily dose (mmol/kg-bw/day) (TherapeuticCategory: none): 0.0169

CN(C(=O)C(Cl)Cl)c1ccc(O)cc1
maximum recommended daily dose (mmol/kg-bw/day) (TherapeuticCategory: antiamebic): 0.107

OC[C@@H](O)CN1CCN(c2ccccc2)CC1
maximum recommended daily dose (mmol/kg-bw/day) (TherapeuticCategory: antitussive): 0.0127

COc1ccccc1OCCNCC(O)COc1cccc2[nH]c3ccccc3c12 (configuration not stated)
maximum recommended daily dose (mmol/kg-bw/day) [8]: 0.00103

CC[C@H](C)[C@H]1O[C@]2(CC[C@@H]1C)C[C@@H]1C[C@@H](C/C=C(\C)[C@@H](O[C@H]3C[C@H](OC)[C@@H](O[C@H]4C[C@H](OC)[C@@H](O)[C@H](C)O4)[C@H](C)O3)[C@@H](C)/C=C/C=C3\CO[C@@H]4[C@H](O)C(C)=C[C@@H](C(=O)O1)[C@]34O)O2
maximum recommended daily dose (mmol/kg-bw/day) [9]: 0.000171

C[C@]12CC[C@@H]3c4ccc(OS(=O)(=O)O)cc4CC[C@H]3[C@@H]1CCC2=O
maximum recommended daily dose (mmol/kg-bw/day) (TherapeuticCategory: estrogen): 0.000107

CC(=O)Nc1c(I)c(NC(C)=O)c(I)c(C(=O)O)c1I
maximum recommended daily dose (mmol/kg-bw/day) [10]: 0.761

CCCCOc1ccc(C[N+]2(C)[C@@H]3CC[C@H]2CC(OC(=O)[C@H](CO)c2ccccc2)C3)cc1 (some centres not stated)
maximum recommended daily dose (mmol/kg-bw/day) (TherapeuticCategory: antispasmotic, anticholinergic): 0.000915

Cc1ccccc1-n1c(C)nc2ccccc2c1=O
maximum recommended daily dose (mmol/kg-bw/day) (TherapeuticCategory: hypnotic, sedative): 0.02

Nc1ccc(C(=O)O)c(O)c1
maximum recommended daily dose (mmol/kg-bw/day) [4]: 1.31

CCN1CCN(C(=O)N[C@@H](C(=O)N[C@@H]2C(=O)N3[C@@H]2SC(C)(C)[C@@H]3C(=O)O)c2ccccc2)C(=O)C1=O
maximum recommended daily dose (mmol/kg-bw/day) [4]: 0.773

CCC(C)n1ncn(-c2ccc(N3CCN(c4ccc(OC[C@H]5CO[C@](Cn6cncn6)(c6ccc(Cl)cc6Cl)O5)cc4)CC3)cc2)c1=O (some centres not stated)
maximum recommended daily dose (mmol/kg-bw/day) (TherapeuticCategory: antifungal): 0.0142

CN(C)CCO
maximum recommended daily dose (mmol/kg-bw/day) [11]: 0.168

CN(CCOc1ccc(CC2SC(=O)NC2=O)cc1)c1ccccn1 (configuration not stated)
maximum recommended daily dose (mmol/kg-bw/day) [3]: 0.000281

COC(=O)Nc1nc2ccc(C(=O)c3ccc(F)cc3)cc2[nH]1
maximum recommended daily dose (mmol/kg-bw/day) [9]: 0.00533

N=C(N)c1ccc(OCCCCCOc2ccc(C(=N)N)cc2)cc1
maximum recommended daily dose (mmol/kg-bw/day) (TherapeuticCategory: antiprotozoal): 0.0118

CCc1c(C)[nH]c2c1C(=O)C(CN1CCOCC1)CC2 (configuration not stated)
maximum recommended daily dose (mmol/kg-bw/day) [12]: 0.0136

CCCSc1ccc2nc(NC(=O)OC)[nH]c2c1
maximum recommended daily dose (mmol/kg-bw/day) [9]: 0.0501

CN(C(=O)CC(=O)N(C)c1c(I)c(C(=O)NC(CO)C(O)CO)c(I)c(C(=O)NC(CO)C(O)CO)c1I)c1c(I)c(C(=O)NC(CO)C(O)CO)c(I)c(C(=O)NC(CO)C(O)CO)c1I (configuration not stated)
maximum recommended daily dose (mmol/kg-bw/day) [10]: 0.0615

CC(C)[N+](C)(CCC(C(N)=O)(c1ccccc1)c1ccccc1)C(C)C
maximum recommended daily dose (mmol/kg-bw/day) [7]: 0.000472

CC12C=CC(C(=O)O[C@H]3CC[C@H]4[C@@H]5CCC6=CC(=O)CC[C@@H]6[C@H]5CC[C@]34C)(CC1)CC2
maximum recommended daily dose (mmol/kg-bw/day) (TherapeuticCategory: anabolic): 0.00788

CCOC(=O)/C=C(C)/C=C/C=C(C)/C=C/c1c(C)cc(OC)c(C)c1C
maximum recommended daily dose (mmol/kg-bw/day) (TherapeuticCategory: antipsoriatic): 0.00423

N#CC(CCN1CCC(C(=O)O)(c2ccccc2)CC1)(c1ccccc1)c1ccccc1
maximum recommended daily dose (mmol/kg-bw/day) (TherapeuticCategory: antiperistaltic, antidiarrheal): 0.000313

OC(CCCN1CCCCC1)(c1ccccc1)c1ccccc1
maximum recommended daily dose (mmol/kg-bw/day) (TherapeuticCategory: antiemetic): 0.0162

N=C(N)N
maximum recommended daily dose (mmol/kg-bw/day) (TherapeuticCategory: none): 0.846

N[C@@H](CCC(=O)N[C@@H](CS)C(=O)NCC(=O)O)C(=O)O
maximum recommended daily dose (mmol/kg-bw/day) (TherapeuticCategory: none): 0.0163

CCC(=O)OCC(=O)[C@@]1(OC(=O)CC)[C@@H](C)C[C@H]2[C@@H]3CCC4=CC(=O)C=C[C@]4(C)[C@@]3(F)[C@@H](O)C[C@@]21C
maximum recommended daily dose (mmol/kg-bw/day) [1]: 0.000297

CCCCC(C(=O)O)C(=O)N(Nc1ccccc1)c1ccccc1 (configuration not stated)
maximum recommended daily dose (mmol/kg-bw/day) (TherapeuticCategory: analgesic, antipyretic, anti inflammatory): 0.0337

NCCS
maximum recommended daily dose (mmol/kg-bw/day) (TherapeuticCategory: antidote to acetaminophen): 0.432

O=C(O)c1cccnc1Nc1cccc(C(F)(F)F)c1
maximum recommended daily dose (mmol/kg-bw/day) (TherapeuticCategory: anti inflammatory): 0.0443

O=C(O)c1cc(N=Nc2ccc(S(=O)(=O)Nc3ccccn3)cc2)ccc1O
maximum recommended daily dose (mmol/kg-bw/day) (TherapeuticCategory: treatment of ulcerative colitis and Crohn's disease): 0.334

O=C(CCCN1CCC(O)(c2cccc(C(F)(F)F)c2)CC1)c1ccc(F)cc1
maximum recommended daily dose (mmol/kg-bw/day) [12]: 0.000325

CN(C)CCCN1c2ccccc2CCc2ccc(Cl)cc21
maximum recommended daily dose (mmol/kg-bw/day) [11]: 0.0132

CC(C)(C)NCC(O)COc1cccc2c1C[C@H](O)[C@H](O)C2 (some centres not stated)
maximum recommended daily dose (mmol/kg-bw/day) [8]: 0.0346

CC[C@@]1(O)C[C@H](O[C@H]2C[C@H](N(C)C)[C@H](O[C@H]3C[C@H](O)[C@H](O[C@H]4CCC(=O)[C@H](C)O4)[C@H](C)O3)[C@H](C)O2)c2c(cc3c(c2O)C(=O)c2c(O)cccc2C3=O)[C@H]1C(=O)OC
maximum recommended daily dose (mmol/kg-bw/day) [2]: 0.00333

O=C(O)c1cc(N=Nc2ccc(O)c(C(=O)O)c2)ccc1O
maximum recommended daily dose (mmol/kg-bw/day) (TherapeuticCategory: treatment of ulcerative colitis): 0.0553

C[C@]12CC[C@H]3[C@@H](CC=C4C[C@@H](O)CC[C@@]43C)[C@@H]1CC[C@@H]2O
maximum recommended daily dose (mmol/kg-bw/day) (TherapeuticCategory: anabolic): 0.00861

CC(=O)OCC(=O)[C@@]1(O)CC[C@H]2[C@@H]3CCC4=CC(=O)CC[C@]4(C)[C@@]3(F)[C@@H](O)C[C@@]21C
maximum recommended daily dose (mmol/kg-bw/day) (TherapeuticCategory: mineralcorticoid): 3.95e-06

CCCCC[C@H](O)/C=C/[C@H]1[C@H](O)CC(=O)[C@@H]1CCCCCCC(=O)O
maximum recommended daily dose (mmol/kg-bw/day) [5]: 2.82e-07

CC(S)C(=O)NCC(=O)O (configuration not stated)
maximum recommended daily dose (mmol/kg-bw/day) (TherapeuticCategory: hepatoprotectant, mucolytic, antidote to heavy metal poisoning): 0.204
